Laboratory results as given in US5633345A, “Cyclic peptides” (priority 1992, dated 1997).

How the values were obtained:
Assay in all cases: Antifungal activity, MIC by agar dilution method
C. albicans TIMM 0171 = format: cell-based, Candida albicans; conditions: for MIC: C. albicans TIMM 0171, Sabouraud-dextrose agar medium, 30° C. for 2 days
Procedure: (§1) The minimum inhibitory concentration (MIC) values were determined after incubation at 30° C. for 2 days.

C. grabrata TIMM 1062 = format: cell-based; conditions: Sabouraud-dextrose agar medium, 30° C. for 2 days
Procedure: as §1

C. kefyr TIMM 0301 = format: cell-based; conditions: Sabouraud-dextrose agar medium, 30° C. for 2 days
Procedure: as §1

[1] = test system: Candida albicans TIMM 0136; format: cell-based; conditions: Sabouraud-dextrose agar medium, 30° C. for 2 days
Procedure: as §1

[2] = test system: Cryptococcus neoformans TIMM 0354; format: cell-based; conditions: Sabouraud-dextrose agar medium, 30° C. for 2 days
Procedure: as §1

Substance | MIC (C. albicans TIMM 0171) [mg/L] | MIC (C. grabrata TIMM 1062) [mg/L] | MIC (C. kefyr TIMM 0301) [mg/L] | MIC [1] [mg/L] | MIC [2] [mg/L] | activity against Candida albicans TIMM 0171 compared with compound 1 (C. albicans TIMM 0171; comparison in words)
cyclo(L-GluOR-L-MeVal-L-Leu-L-βHOMeVal-D-Hmp-L-MeVal-L-Phe-L-MePhe-L- Pro) (R: cis-3-hexenyl) [Compound 34] | 0.10 | 0.39 | 0.78 | 0.20 | > 25 | –
cyclo(L-GluOR-L-MeVal-L-Leu-L-βHOMeVal-D-Hmp-L-MeVal-L-Phe-L-MePhe-L- Pro) (R: n-decyl) [Compound 33] | 1.56 | > 25 | > 25 | 1.56 | > 25 | –
cyclo(L-GluOR-L-MeVal-L-Leu-L-βHOMeVal-D-Hmp-L-MeVal-L-Phe-L-MePhe-L- Pro) (R: n-hexyl) [Compound 31] | 0.20 | 1.56 | 3.12 | 0.39 | > 25 | –
cyclo(L-GluOR-L-MeVal-L-Leu-L-βHOMeVal-D-Hmp-L-MeVal-L-Phe-L-MePhe-L- Pro) (R: n-octyl) [Compound 32] | 0.78 | 1.56 | 6.25 | 0.78 | > 25 | –
cyclo(L-GluOR-L-MeVal-L-Leu-L-βHOMeVal-D-Hmp-L-MeVal-L-Phe-L-MePhe-L- Pro) (R: trans-3-hexenyl) [Compound 35] | 0.78 | 0.39 | 1.56 | 0.20 | > 25 | –
cyclo(L-RONva-L-MeVal-L-Leu-L-βHOMeVal-D-Hmp-L-MeVal-L-Phe-L-MePhe-L- Pro) (R: n-hexanoyl) [Compound 37] | 0.10 | 0.39 | 0.78 | 0.10 | 12.5 | –
cyclo(L-aIle-L-MeVal-L-GluOR-L-βHOMeVal-D-Hmp-L-MeVal-L-Phe-L-MePhe-L-Pro) (R: cHex) [Compound 38] | 0.013 | 1.56 | 3.12 | 0.20 | > 25 | higher activity against Candida albicans TIMM 0171 than compound 1
cyclo(L-aIle-L-ROMeNva-L-Leu-L-βHOMeVal-D-Hmp-L-MeVal-L-Phe-L-MePhe-L-Pro) (R: Bzl) [Compound 27] | 0.78 | > 25 | 3.12 | 0.78 | > 25 | –
